Tested on: NCI/ADR-RES complex spheroid viability
Experiment: Anticancer human tumor NCI/ADR-RES cell line growth inhibition;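 note: spheroids exposed to compounds for 7 days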;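 for viability, T/C: 100% = DMSO vehicle treated spheroids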
Details: for IC50: curve of first compound; for viability, T/C: stronger effect = lower value
Method in brief: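 Drug combinations with the LSD1 inhibitor iadademstat tested on tumor cells co-cultured as spheroids with endothelial cells and mesenchymal stem cells. Concentrations descended in half-log increments from clinical Cmax or 10 microM.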

[1] = second compound 0.1 µM, first compound 0.00316 µM
[2] = second compound 0.1 µM, first compound 0.01 µM
[3] = second compound 0.1 µM, first compound 0.0316 µM
[4] = second compound 0.1 µM, first compound 0.1 µM
[5] = second compound 0.316 µM, first compound 0.00316 µM
[6] = second compound 0.316 µM, first compound 0.01 µM
[7] = second compound 0.316 µM, first compound 0.0316 µM
[8] = second compound 0.316 µM, first compound 0.1 µM
[9] = second compound 1 µM, first compound 0.00316 µM
[10] = second compound 1 µM, first compound 0.01 µM
[11] = second compound 1 µM, first compound 0.0316 µM
[12] = second compound 1 µM, first compound 0.1 µM
[13] = second compound 3.16 µM, first compound 0.00316 µM
[14] = second compound 3.16 µM, first compound 0.01 µM
[15] = second compound 3.16 µM, first compound 0.0316 µM
[16] = second compound 3.16 µM, first compound 0.1 µM
[17] = second compound 10 µM, first compound 0.00316 µM
[18] = second compound 10 µM, first compound 0.01 µM
[19] = second compound 10 µM, first compound 0.0316 µM
[20] = second compound 10 µM, first compound 0.1 µM
[21] = second compound 0.1 µM, first compound 0.00949 µM
[22] = second compound 0.1 µM, first compound 0.03 µM
[23] = second compound 0.1 µM, first compound 0.0949 µM
[24] = second compound 0.1 µM, first compound 0.3 µM
[25] = second compound 0.316 µM, first compound 0.00949 µM
[26] = second compound 0.316 µM, first compound 0.03 µM
[27] = second compound 0.316 µM, first compound 0.0949 µM
[28] = second compound 0.316 µM, first compound 0.3 µM
[29] = second compound 1 µM, first compound 0.00949 µM
[30] = second compound 1 µM, first compound 0.03 µM
[31] = second compound 1 µM, first compound 0.0949 µM
[32] = second compound 1 µM, first compound 0.3 µM
[33] = second compound 3.16 µM, first compound 0.00949 µM
[34] = second compound 3.16 µM, first compound 0.03 µM
[35] = second compound 3.16 µM, first compound 0.0949 µM
[36] = second compound 3.16 µM, first compound 0.3 µM
[37] = second compound 10 µM, first compound 0.00949 µM
[38] = second compound 10 µM, first compound 0.03 µM
[39] = second compound 10 µM, first compound 0.0949 µM
[40] = second compound 10 µM, first compound 0.3 µM

## CC[C@@]1(O)C(=O)OCc2c1cc1n(c2=O)Cc2cc3c(CN(C)C)c(O)ccc3nc2-1 + NC1CCC(NC2CC2c2ccccc2)CC1
Second compound 0.1 µM
  IC50: 8.31 nM
Second compound 0.316 µM
  IC50: 8.18 nM
Second compound 1 µM
  IC50: 9.09 nM
Second compound 3.16 µM
  IC50: 7.45 nM
Second compound 10 µM
  IC50: 5.56 nM
Second compound 0.1 µM, first compound 0.000316 µM
  viability, T/C: 104%
Second compound 0.1 µM, first compound 0.001 µM
  viability, T/C: 97.8%
[1]
  viability, T/C: 86.5%
[2]
  viability, T/C: 43.4%
[3]
  viability, T/C: 9.03%
[4]
  viability, T/C: 3.21%
Second compound 0.316 µM, first compound 0.000316 µM
  viability, T/C: 118%
Second compound 0.316 µM, first compound 0.001 µM
  viability, T/C: 116%
[5]
  viability, T/C: 86.7%
[6]
  viability, T/C: 42.9%
[7]
  viability, T/C: 10.8%
[8]
  viability, T/C: 2.57%
Second compound 1 µM, first compound 0.000316 µM
  viability, T/C: 103%
Second compound 1 µM, first compound 0.001 µM
  viability, T/C: 103%
[9]
  viability, T/C: 92.9%
[10]
  viability, T/C: 46.2%
[11]
  viability, T/C: 8.05%
[12]
  viability, T/C: 2.63%
Second compound 3.16 µM, first compound 0.000316 µM
  viability, T/C: 108%
Second compound 3.16 µM, first compound 0.001 µM
  viability, T/C: 98.8%
[13]
  viability, T/C: 91.3%
[14]
  viability, T/C: 35.6%
[15]
  viability, T/C: 10.1%
[16]
  viability, T/C: 4.55%
Second compound 10 µM, first compound 0.000316 µM
  viability, T/C: 98.5%
Second compound 10 µM, first compound 0.001 µM
  viability, T/C: 95.3%
[17]
  viability, T/C: 66.8%
[18]
  viability, T/C: 32%
[19]
  viability, T/C: 7.06%
[20]
  viability, T/C: 2.23%

## COc1cc(C2c3cc4c(cc3C(OC3OC5COC(C)OC5C(O)C3O)C3COC(=O)C23)OCO4)cc(OC)c1O (stereo not given) + NC1CCC(NC2CC2c2ccccc2)CC1
Second compound 0.1 µM
  IC50: > 3000 nM
Second compound 0.316 µM
  IC50: > 3000 nM
Second compound 1 µM
  IC50: > 3000 nM
Second compound 3.16 µM
  IC50: > 3000 nM
Second compound 10 µM
  IC50: > 3000 nM
[21]
  viability, T/C: 92.9%
[22]
  viability, T/C: 103%
[23]
  viability, T/C: 99.4%
[24]
  viability, T/C: 100%
Second compound 0.1 µM, first compound 0.949 µM
  viability, T/C: 98.3%
Second compound 0.1 µM, first compound 3 µM
  viability, T/C: 91.1%
[25]
  viability, T/C: 101%
[26]
  viability, T/C: 101%
[27]
  viability, T/C: 103%
[28]
  viability, T/C: 100%
Second compound 0.316 µM, first compound 0.949 µM
  viability, T/C: 95.6%
Second compound 0.316 µM, first compound 3 µM
  viability, T/C: 94.4%
[29]
  viability, T/C: 98.8%
[30]
  viability, T/C: 96.5%
[31]
  viability, T/C: 95.8%
[32]
  viability, T/C: 96.6%
Second compound 1 µM, first compound 0.949 µM
  viability, T/C: 94.7%
Second compound 1 µM, first compound 3 µM
  viability, T/C: 91.3%
[33]
  viability, T/C: 96.9%
[34]
  viability, T/C: 91.8%
[35]
  viability, T/C: 99.2%
[36]
  viability, T/C: 97.3%
Second compound 3.16 µM, first compound 0.949 µM
  viability, T/C: 94.5%
Second compound 3.16 µM, first compound 3 µM
  viability, T/C: 86.1%
[37]
  viability, T/C: 93%
[38]
  viability, T/C: 92%
[39]
  viability, T/C: 86.3%
[40]
  viability, T/C: 90.3%
Second compound 10 µM, first compound 0.949 µM
  viability, T/C: 81.6%
Second compound 10 µM, first compound 3 µM
  viability, T/C: 82%

## Nc1ccn(C2OC(CO)C(O)C2(F)F)c(=O)n1 (stereo not given) + NC1CCC(NC2CC2c2ccccc2)CC1
Second compound 0.1 µM
  IC50: < 0.949 nM
Second compound 0.316 µM
  IC50: < 0.949 nM
Second compound 1 µM
  IC50: < 0.949 nM
Second compound 3.16 µM
  IC50: < 0.949 nM
Second compound 10 µM
  IC50: < 0.949 nM
Second compound 0.1 µM, first compound 0.000949 µM
  viability, T/C: 2.74%
Second compound 0.1 µM, first compound 0.003 µM
  viability, T/C: 4.03%
[21]
  viability, T/C: 2.54%
[22]
  viability, T/C: 2.78%
[23]
  viability, T/C: 2.85%
[24]
  viability, T/C: 3.22%
Second compound 0.316 µM, first compound 0.000949 µM
  viability, T/C: 4.09%
Second compound 0.316 µM, first compound 0.003 µM
  viability, T/C: 4.64%
[25]
  viability, T/C: 2.74%
[26]
  viability, T/C: 3.17%
[27]
  viability, T/C: 1.83%
[28]
  viability, T/C: 5.17%
Second compound 1 µM, first compound 0.000949 µM
  viability, T/C: 3.13%
Second compound 1 µM, first compound 0.003 µM
  viability, T/C: 3.5%
[29]
  viability, T/C: 3.1%
[30]
  viability, T/C: 2.71%
[31]
  viability, T/C: 2.01%
[32]
  viability, T/C: 1.76%
Second compound 3.16 µM, first compound 0.000949 µM
  viability, T/C: 2.3%
Second compound 3.16 µM, first compound 0.003 µM
  viability, T/C: 3.42%
[33]
  viability, T/C: 2.96%
[34]
  viability, T/C: 1.75%
[35]
  viability, T/C: 0.86%
[36]
  viability, T/C: 2.49%
Second compound 10 µM, first compound 0.000949 µM
  viability, T/C: 1.69%
Second compound 10 µM, first compound 0.003 µM
  viability, T/C: 2.17%
[37]
  viability, T/C: 2.05%
[38]
  viability, T/C: 2.1%
[39]
  viability, T/C: 5.19%
[40]
  viability, T/C: 0.69%

## Nc1ncn(C2CC(O)C(CO)O2)c(=O)n1 (stereo not given) + NC1CCC(NC2CC2c2ccccc2)CC1
Second compound 0.1 µM
  IC50: 82.7 nM
Second compound 0.316 µM
  IC50: 126 nM
Second compound 1 µM
  IC50: 76.7 nM
Second compound 3.16 µM
  IC50: 59.7 nM
Second compound 10 µM
  IC50: 18.5 nM
[1]
  viability, T/C: 109%
[2]
  viability, T/C: 113%
[3]
  viability, T/C: 73.4%
[4]
  viability, T/C: 48.6%
Second compound 0.1 µM, first compound 0.316 µM
  viability, T/C: 26.1%
Second compound 0.1 µM, first compound 1 µM
  viability, T/C: 23.5%
[5]
  viability, T/C: 106%
[6]
  viability, T/C: 91%
[7]
  viability, T/C: 78.3%
[8]
  viability, T/C: 53%
Second compound 0.316 µM, first compound 0.316 µM
  viability, T/C: 33.8%
Second compound 0.316 µM, first compound 1 µM
  viability, T/C: 18.9%
[9]
  viability, T/C: 105%
[10]
  viability, T/C: 91.7%
[11]
  viability, T/C: 74.6%
[12]
  viability, T/C: 41%
Second compound 1 µM, first compound 0.316 µM
  viability, T/C: 28.2%
Second compound 1 µM, first compound 1 µM
  viability, T/C: 19.4%
[13]
  viability, T/C: 93.3%
[14]
  viability, T/C: 83.3%
[15]
  viability, T/C: 63.1%
[16]
  viability, T/C: 40%
Second compound 3.16 µM, first compound 0.316 µM
  viability, T/C: 24.1%
Second compound 3.16 µM, first compound 1 µM
  viability, T/C: 20.8%
[17]
  viability, T/C: 63%
[18]
  viability, T/C: 57.8%
[19]
  viability, T/C: 43.1%
[20]
  viability, T/C: 27.3%
Second compound 10 µM, first compound 0.316 µM
  viability, T/C: 17.2%
Second compound 10 µM, first compound 1 µM
  viability, T/C: 15.9%

Reference: PubChem BioAssay AID1918955 (Molecular Pharmacology Branch, DTP, NCI, 2023)
